Experimental data reported in patent publication US20090304692A1, “TRIAZINE COMPOUNDS AS PI3 KINASE AND MTOR INHIBITORS” (Wyeth, priority 2008, published 2009).
Where two headings read alike, the source gives them in different places.

Assays:
[1] = system: human prostate LNCap tumor cell line; experiment: In vitro cell culture growth assay (MTS), LNCap; settings: Homo sapiens, LNCaP, 72 h, read-out: IC50 LNCap
[2] = molecular target: PI3K-γ (Homo sapiens, UniProt P48736); experiment: PI3K-gamma fluorescence polarization assay
[3] = molecular target: Human mTOR (FLAG-TOR) (Homo sapiens, UniProt P42345); experiment: mTOR kinase assay (DELFIA format, purified enzyme); type: biochemical; settings: read-out: IC50 mTOR
[4] = molecular target: PI3K-α (Homo sapiens, UniProt P42336); experiment: PI3K-alpha fluorescence polarization assay
PI3K-α, sequence (P42336 whole entry, species assumed): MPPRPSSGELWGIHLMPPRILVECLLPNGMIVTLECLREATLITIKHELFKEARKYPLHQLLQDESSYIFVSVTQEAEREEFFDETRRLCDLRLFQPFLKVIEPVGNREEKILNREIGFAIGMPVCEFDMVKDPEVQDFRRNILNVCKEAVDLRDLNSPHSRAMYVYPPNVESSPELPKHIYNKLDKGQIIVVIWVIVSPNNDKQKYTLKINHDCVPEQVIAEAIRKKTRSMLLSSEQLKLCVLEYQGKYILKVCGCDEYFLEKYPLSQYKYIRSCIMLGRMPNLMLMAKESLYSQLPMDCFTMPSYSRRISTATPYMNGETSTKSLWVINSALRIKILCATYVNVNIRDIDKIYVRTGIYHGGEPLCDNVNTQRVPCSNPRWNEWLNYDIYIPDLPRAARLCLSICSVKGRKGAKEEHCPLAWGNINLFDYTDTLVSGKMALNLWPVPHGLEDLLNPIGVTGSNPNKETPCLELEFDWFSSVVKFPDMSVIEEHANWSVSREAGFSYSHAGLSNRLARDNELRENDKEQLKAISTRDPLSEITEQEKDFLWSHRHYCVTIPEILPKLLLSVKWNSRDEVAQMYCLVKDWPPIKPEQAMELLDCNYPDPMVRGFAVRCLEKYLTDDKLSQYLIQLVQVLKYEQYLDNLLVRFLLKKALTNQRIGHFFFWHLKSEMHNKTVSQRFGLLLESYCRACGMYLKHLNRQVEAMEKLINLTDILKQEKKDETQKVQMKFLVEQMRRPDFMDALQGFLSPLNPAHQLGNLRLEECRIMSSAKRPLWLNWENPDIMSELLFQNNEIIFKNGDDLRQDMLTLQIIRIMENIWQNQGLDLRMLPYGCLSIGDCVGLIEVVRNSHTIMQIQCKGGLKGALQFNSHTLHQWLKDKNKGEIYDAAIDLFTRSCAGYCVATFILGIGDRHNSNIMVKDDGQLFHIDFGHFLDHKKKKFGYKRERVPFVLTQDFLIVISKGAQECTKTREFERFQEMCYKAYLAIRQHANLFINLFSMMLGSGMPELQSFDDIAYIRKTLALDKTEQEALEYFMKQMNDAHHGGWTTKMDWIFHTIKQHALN
PI3K-α, sequence (P27986 whole entry partner, species assumed): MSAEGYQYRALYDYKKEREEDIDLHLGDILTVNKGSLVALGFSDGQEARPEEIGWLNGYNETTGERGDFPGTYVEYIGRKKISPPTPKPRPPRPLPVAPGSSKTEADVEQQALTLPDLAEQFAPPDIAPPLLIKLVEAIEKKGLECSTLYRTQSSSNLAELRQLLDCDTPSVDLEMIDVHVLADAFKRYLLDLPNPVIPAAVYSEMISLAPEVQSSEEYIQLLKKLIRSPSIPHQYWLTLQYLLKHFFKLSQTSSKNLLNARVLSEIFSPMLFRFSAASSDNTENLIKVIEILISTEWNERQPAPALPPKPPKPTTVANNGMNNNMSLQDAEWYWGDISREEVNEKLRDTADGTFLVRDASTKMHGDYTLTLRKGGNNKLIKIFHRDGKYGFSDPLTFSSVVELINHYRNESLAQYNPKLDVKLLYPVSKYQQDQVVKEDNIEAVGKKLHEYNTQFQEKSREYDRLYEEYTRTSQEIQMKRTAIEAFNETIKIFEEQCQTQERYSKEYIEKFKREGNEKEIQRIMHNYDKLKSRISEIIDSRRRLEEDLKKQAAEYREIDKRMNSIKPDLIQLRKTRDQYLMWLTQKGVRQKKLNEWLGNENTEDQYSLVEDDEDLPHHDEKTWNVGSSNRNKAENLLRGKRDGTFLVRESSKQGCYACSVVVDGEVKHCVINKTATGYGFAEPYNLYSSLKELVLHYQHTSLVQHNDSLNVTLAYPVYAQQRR

PI3K-γ, sequence (P48736 whole entry, species assumed): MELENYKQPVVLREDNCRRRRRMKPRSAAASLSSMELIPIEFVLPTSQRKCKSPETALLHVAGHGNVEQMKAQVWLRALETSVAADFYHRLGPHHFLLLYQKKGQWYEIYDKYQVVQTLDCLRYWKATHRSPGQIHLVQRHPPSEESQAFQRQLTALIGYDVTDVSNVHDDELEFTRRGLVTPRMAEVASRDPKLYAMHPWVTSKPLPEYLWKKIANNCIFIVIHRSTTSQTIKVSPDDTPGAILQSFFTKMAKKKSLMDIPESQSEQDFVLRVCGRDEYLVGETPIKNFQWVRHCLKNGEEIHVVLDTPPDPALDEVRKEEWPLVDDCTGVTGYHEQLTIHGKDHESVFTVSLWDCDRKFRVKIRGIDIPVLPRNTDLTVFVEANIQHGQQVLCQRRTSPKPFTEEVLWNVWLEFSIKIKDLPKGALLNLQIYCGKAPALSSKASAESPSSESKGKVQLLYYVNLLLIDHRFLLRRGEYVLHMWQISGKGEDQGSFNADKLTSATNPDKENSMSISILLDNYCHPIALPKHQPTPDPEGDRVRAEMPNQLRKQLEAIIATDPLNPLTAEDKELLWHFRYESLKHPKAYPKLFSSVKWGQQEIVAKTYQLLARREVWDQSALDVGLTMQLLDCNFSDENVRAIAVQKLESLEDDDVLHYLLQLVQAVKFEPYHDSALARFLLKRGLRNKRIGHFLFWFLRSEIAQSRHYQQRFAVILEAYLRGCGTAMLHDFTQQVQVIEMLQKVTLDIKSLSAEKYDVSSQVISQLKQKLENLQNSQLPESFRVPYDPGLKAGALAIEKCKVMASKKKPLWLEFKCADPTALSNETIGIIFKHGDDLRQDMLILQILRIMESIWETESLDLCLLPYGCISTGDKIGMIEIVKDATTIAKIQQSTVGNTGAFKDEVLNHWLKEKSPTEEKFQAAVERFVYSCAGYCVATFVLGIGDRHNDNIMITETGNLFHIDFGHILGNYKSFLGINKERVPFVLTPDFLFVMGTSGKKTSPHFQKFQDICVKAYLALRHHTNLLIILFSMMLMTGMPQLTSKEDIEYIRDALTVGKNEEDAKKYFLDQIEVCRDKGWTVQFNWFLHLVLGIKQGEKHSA
Human mTOR (FLAG-TOR), sequence (P42345 1360-2549 limits assumed): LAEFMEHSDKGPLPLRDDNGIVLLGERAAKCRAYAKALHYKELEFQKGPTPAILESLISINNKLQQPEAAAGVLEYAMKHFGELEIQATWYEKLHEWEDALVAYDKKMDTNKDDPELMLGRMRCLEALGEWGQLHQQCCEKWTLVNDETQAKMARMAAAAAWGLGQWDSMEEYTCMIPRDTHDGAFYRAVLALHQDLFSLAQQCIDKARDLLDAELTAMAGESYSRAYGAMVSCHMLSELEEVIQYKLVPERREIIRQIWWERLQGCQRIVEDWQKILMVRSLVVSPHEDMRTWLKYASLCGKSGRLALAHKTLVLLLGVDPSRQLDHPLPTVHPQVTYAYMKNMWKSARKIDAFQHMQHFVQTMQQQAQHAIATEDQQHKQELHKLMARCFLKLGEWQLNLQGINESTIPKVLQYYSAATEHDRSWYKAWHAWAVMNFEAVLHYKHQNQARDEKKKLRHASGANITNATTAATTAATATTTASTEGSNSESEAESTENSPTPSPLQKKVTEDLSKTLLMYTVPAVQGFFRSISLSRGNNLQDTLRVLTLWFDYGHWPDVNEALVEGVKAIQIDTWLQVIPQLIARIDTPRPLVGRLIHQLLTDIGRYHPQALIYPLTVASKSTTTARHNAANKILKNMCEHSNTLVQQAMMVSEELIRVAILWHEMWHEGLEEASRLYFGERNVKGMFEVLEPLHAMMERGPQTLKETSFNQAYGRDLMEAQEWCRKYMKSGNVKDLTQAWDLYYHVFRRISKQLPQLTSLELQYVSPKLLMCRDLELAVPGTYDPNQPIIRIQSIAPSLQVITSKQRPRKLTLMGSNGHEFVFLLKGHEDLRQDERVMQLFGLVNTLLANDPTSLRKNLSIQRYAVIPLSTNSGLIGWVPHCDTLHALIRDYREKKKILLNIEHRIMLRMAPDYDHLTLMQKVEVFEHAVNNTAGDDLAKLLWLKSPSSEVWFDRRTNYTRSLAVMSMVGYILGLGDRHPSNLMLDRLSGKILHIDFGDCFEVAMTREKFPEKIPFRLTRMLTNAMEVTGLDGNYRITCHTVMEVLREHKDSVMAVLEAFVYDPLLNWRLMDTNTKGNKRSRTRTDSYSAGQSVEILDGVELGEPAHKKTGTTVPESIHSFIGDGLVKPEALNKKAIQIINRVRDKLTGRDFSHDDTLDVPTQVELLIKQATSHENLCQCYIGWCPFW

Row | IC50 [1] | IC50 ([2]; read-out: IC50 PI3Kγ) | IC50 [3] | IC50 ([4]; read-out: IC50 PI3Kα) | IC50 [2] | IC50 [4] | Compound
1 | 400 nM | 4940 nM | 16 nM | 2300 nM |  |  | O=C(Nc1ccc(-c2nc(NCCN3CCOCC3)nc(N3CC4CCC(C3)O4)n2)cc1)Nc1cccnc1 [Example 155, 1-(4-{4-[(2-morpholin-4-ylethyl)amino]-6-(8-oxa-3-azabicyclo[3.2.1]oct-3-yl)-1,3,5-triazin-2-yl}phenyl)-3-pyridin-3-ylurea]
2 | 2700 nM | 7090 nM | 170 nM | 1450 nM |  |  | O=C(Nc1ccc(-c2nc(NN3CCN(C4CCCC4)CC3)nc(N3CC4CCC(C3)O4)n2)cc1)Nc1cccnc1 [Example 157, 1-(4-{4-[(4-cyclopentylpiperazin-1-yl)amino]-6-(8-oxa-3-azabicyclo[3.2.1]oct-3-yl)-1,3,5-triazin-2-yl}phenyl)-3-pyridin-3-ylurea]
3 | 49 nM | 1290 nM | 7 nM | 300 nM |  |  | CC(C)Oc1nc(-c2ccc(NC(=O)Nc3ccncc3)cc2)nc(N2CC3CCC(C2)O3)n1 [Example 158, 1-{4-[4-isopropoxy-6-(8-oxa-3-azabicyclo[3.2.1]oct-3-yl)-1,3,5-triazin-2-yl]phenyl}-3-pyridin-4-ylurea]
4 | 1.2 nM | 3920 nM | 2 nM | 133 nM |  |  | CC(C)Oc1nc(-c2ccc(NC(=O)Nc3ccc(N4CCN(C)CC4)cc3)cc2)nc(N2CC3CCC(C2)O3)n1 [Example 159, 1-{4-[4-isopropoxy-6-(8-oxa-3-azabicyclo[3.2.1]oct-3-yl)-1,3,5-triazin-2-yl]phenyl}-3-[4-(4-methylpiperazin-1-yl)phenyl]urea]
5 | 220 nM | 9070 nM | 7 nM | 358 nM |  |  | O=C(Nc1ccncc1)Nc1ccc(-c2nc(Cl)nc(N3CC4CCC(C3)O4)n2)cc1 [Example 160, 1-{4-[4-chloro-6-(8-oxa-3-azabicyclo[3.2.1]oct-3-yl)-1,3,5-triazin-2-yl]phenyl}-3-pyridin-4-ylurea]
6 | 5000 nM | 7960 nM | 8.3 nM | 408 nM |  |  | O=C(Nc1ccc(-c2nc(NCC3CCNCC3)nc(N3CC4CCC(C3)O4)n2)cc1)Nc1cccnc1 [Example 169, 1-(4-{4-(8-oxa-3-azabicyclo[3.2.1]oct-3-yl)-6-[(piperidin-4-ylmethyl)amino]-1,3,5-triazin-2-yl}phenyl)-3-pyridin-3-ylurea]
7 | 4500 nM | 9500 nM | 4 nM | 384 nM |  |  | O=C(Nc1ccc(-c2nc(NCCC3CCNCC3)nc(N3CC4CCC(C3)O4)n2)cc1)Nc1cccnc1 [Example 170, 1-(4-{4-(8-oxa-3-azabicyclo[3.2.1]oct-3-yl)-6-[(2-piperidin-4-ylethyl)amino]-1,3,5-triazin-2-yl}phenyl)-3-pyridin-3-ylurea]
8 | 5200 nM | 9500 nM | 1.2 nM | 300 nM |  |  | CN1CCN(c2nc(-c3ccc(NC(=O)Nc4cccnc4)cc3)nc(N3CC4CCC(C3)O4)n2)C1 [Example 171, 1-{4-[4-(3-methylimidazolidin-1-yl)-6-(8-oxa-3-azabicyclo[3.2.1]oct-3-yl)-1,3,5-triazin-2-yl]phenyl}-3-pyridin-3-ylurea]
9 | 4.25 nM | 727 nM | 2.1 nM | 861 nM |  |  | COCC(COC)Oc1nc(-c2ccc(NC(=O)Nc3ccncc3)cc2)nc(N2CC3CCC(C2)O3)n1 [Example 174, 1-(4-{4-[2-methoxy-1-(methoxymethyl)ethoxy]-6-(8-oxa-3-azabicyclo[3.2.1]oct-3-yl)-1,3,5-triazin-2-yl}phenyl)-3-pyridin-4-ylurea]
10 | 9.5 nM | 453 nM | 4.8 nM | 549 nM |  |  | COCC(COC)Oc1nc(-c2ccc(NC(=O)Nc3ccc(N4CCN(C)CC4)cc3)cc2)nc(N2CC3CCC(C2)O3)n1 [Example 175, 1-(4-{4-[2-methoxy-1-(methoxymethyl)ethoxy]-6-(8-oxa-3-azabicyclo[3.2.1]oct-3-yl)-1,3,5-triazin-2-yl}phenyl)-3-[4-(4-methylpiperazin-1-yl)phenyl]urea]
11 | 1000 nM | 3730 nM | 22 nM | 1120 nM |  |  | COCC(COC)Oc1nc(-c2ccc(NC(=O)OCCO)cc2)nc(N2CC3CCC(C2)O3)n1 [Example 176, 2-hydroxyethyl (4-{4-[2-methoxy-1-(methoxymethyl)ethoxy]-6-(8-oxa-3-azabicyclo[3.2.1]oct-3-yl)-1,3,5-triazin-2-yl}phenyl)carbamate]
12 | 600 nM | 4120 nM | 1.6 nM | 5840 nM |  |  | CNC(=O)Nc1ccc(-c2nc(OC(COC)COC)nc(N3CC4CCC(C3)O4)n2)cc1 [Example 177, 1-(4-{4-[2-methoxy-1-(methoxymethyl)ethoxy]-6-(8-oxa-3-azabicyclo[3.2.1]oct-3-yl)-1,3,5-triazin-2-yl}phenyl)-3-methylurea]
13 | 850 nM |  | 14 nM |  | > 10000 nM | > 10000 nM | COCC(COC)Oc1nc(-c2ccc(NC(=O)NC3CC3)cc2)nc(N2CC3CCC(C2)O3)n1 [Example 178, 1-cyclopropyl-3-(4-{4-[2-methoxy-1-(methoxymethyl)ethoxy]-6-(8-oxa-3-azabicyclo[3.2.1]oct-3-yl)-1,3,5-triazin-2-yl}phenyl)urea]
14 | 5800 nM | 8000 nM | 1.6 nM | 531 nM |  |  | O=C(Nc1ccc(-c2nc(OCC3CCCNC3)nc(N3CC4CCC(C3)O4)n2)cc1)Nc1cccnc1 (stereo not drawn) [Example 180, 1-{4-[4-(8-oxa-3-azabicyclo[3.2.1]oct-3-yl)-6-(piperidin-3-ylmethoxy)-1,3,5-triazin-2-yl]phenyl}-3-pyridin-3-ylurea]
15 | 3500 nM | 5000 nM | 3 nM | 308 nM |  |  | O=C(Nc1ccc(-c2nc(OCCC3CCNCC3)nc(N3CC4CCC(C3)O4)n2)cc1)Nc1cccnc1 [Example 182, 1-{4-[4-(8-oxa-3-azabicyclo[3.2.1]oct-3-yl)-6-(2-piperidin-4-ylethoxy)-1,3,5-triazin-2-yl]phenyl}-3-pyridin-3-ylurea]
16 | 8500 nM | 11000 nM | 14 nM | 526 nM |  |  | O=C(Nc1ccc(-c2nc(OCC3CCNCC3)nc(N3CC4CCC(C3)O4)n2)cc1)Nc1cccnc1 [Example 183, 1-{4-[4-(8-oxa-3-azabicyclo[3.2.1]oct-3-yl)-6-(piperidin-4-ylmethoxy)-1,3,5-triazin-2-yl]phenyl}-3-pyridin-3-ylurea]
17 | 950 nM | 1320 nM | 6.3 nM | 780 nM |  |  | CNc1nc(-c2ccc(NC(=O)Nc3cccnc3)cc2)nc(N2CC3CCC(C2)O3)n1 [Example 190, 1-{4-[4-(methylamino)-6-(8-oxa-3-azabicyclo[3.2.1]oct-3-yl)-1,3,5-triazin-2-yl]phenyl}-3-pyridin-3-ylurea]

Row | Compound | IC50 [1] | IC50 ([2]; read-out: IC50 PI3Kγ) | IC50 [3] | IC50 ([4]; read-out: IC50 PI3Kα) | IC50 [2] | IC50 [4]
18 | NCCCCOc1nc(-c2ccc(NC(=O)Nc3cccnc3)cc2)nc(N2CC3CCC(C2)O3)n1 [Example 181, 1-{4-[4-(4-aminobutoxy)-6-(8-oxa-3-azabicyclo[3.2.1]oct-3-yl)-1,3,5-triazin-2-yl]phenyl}-3-pyridin-3-ylurea] | 3400 nM | 6730 nM | 11 nM | 426 nM |  | 
